In brackets after ≈: the same amount, converted by molar mass.
Key:
[1] = tested on: Aedes aegypti; assay: Insecticidal activity against yellow fever mosquito larvae by microtiter plate assay; assay type: functional
[2] = tested on: PC-3; assay: Cytotoxicity against human PC3 cells after 7 days by MTT assay; assay type: functional; details: PC-3, 168 h, read-out: ED50 (the source's name)
[3] = tested on: HT-29; assay: Cytotoxicity against human HT29 cells after 7 days by MTT assay; assay type: functional; details: HT-29, 168 h, read-out: ED50 (the source's name)
[4] = tested on: MCF7; assay: Cytotoxicity against human MCF7 cells after 7 days by MTT assay; assay type: functional; details: MCF7, 168 h, read-out: ED50 (the source's name)
[5] = tested on: Artemia; assay: (§1) Toxicity to brine shrimp; assay type: organism-based; details: in vivo
[6] = tested on: A549; assay: Cytotoxicity against human A549 cells after 7 days by MTT assay; assay type: functional; details: for EC50: Homo sapiens, A549, 168 h, read-out: ED50 (the source's name)
[7] = tested on: MIA PaCa-2; assay: Cytotoxicity against human MIAPaCa2 cells after 7 days by MTT assay; assay type: functional; details: MIA PaCa-2, 168 h, read-out: ED50 (the source's name)
[8] = tested on: A498; assay: Cytotoxicity against human A498 cells after 7 days by MTT assay; assay type: functional; details: A498, 168 h, read-out: ED50 (the source's name)
[9] = as §1; assay type: organism-based; details: artemia, in vivo

| SMILES | LC50 [1] [µg/mL] | EC50 [2] [µg/mL] | EC50 [3] [µg/mL] | EC50 [4] [µg/mL] | LC50 [5] [ppm] | EC50 [6] [µg/mL] | EC50 [7] [µg/mL] | EC50 [8] [µg/mL] | LC50 [9] [µg/mL] | ED50 [6] [×10⁻⁷ ug/ml] |
| --- | --- | --- | --- | --- | --- | --- | --- | --- | --- | --- |
| CCCCCCCCCCCC[C@@H](O)[C@H]1CC[C@H]([C@H](O)CC[C@H](O)[C@@H]2CC[C@@H](CCCCCCCC3=C[C@H](C)OC3=O)O2)O1 | 0.68 (≈ 1.09 µM) | 0.15 (≈ 0.241 µM) | 0.143 (≈ 0.23 µM) | 1 (≈ 1.61 µM) | 0.04 | 0.131 (≈ 0.21 µM) | 0.393 (≈ 0.631 µM) | 0.328 (≈ 0.527 µM) | – | – |
| CCCCCCCCCCCC[C@@H](O)[C@H]1CC[C@H]([C@H]2CC[C@@H]([C@@H]3CC[C@@H](CCCCCCCC4=C[C@H](C)OC4=O)O3)OCO2)O1 | – | 0.132 (≈ 0.208 µM) | 0.183 (≈ 0.288 µM) | 0.495 (≈ 0.78 µM) | – | 0.0382 (≈ 0.0602 µM) | 0.217 (≈ 0.342 µM) | 0.162 (≈ 0.255 µM) | – | – |
| CCCCCCCCCCCC[C@@H](O)[C@H]1CC[C@H]([C@H](O)CC[C@H](O)[C@@H]2CC[C@@H](CCCCC[C@@H]3CC(CC(C)=O)C(=O)O3)O2)O1 (some centres undefined) | 0.27 (≈ 0.423 µM) | 0.00108 (≈ 0.00169 µM) | > 1 | > 1 | 3.27 | 0.214 (≈ 0.335 µM) | > 1 | 0.212 (≈ 0.332 µM) | – | – |
| CCCCCCCCCCCC[C@@H](O)[C@H]1CC[C@H]([C@H]2CC[C@@H]([C@@H]3CC[C@@H](CCCCC[C@@H]4CC(CC(C)=O)C(=O)O4)O3)OCO2)O1 (mixture of isomers) | – | 0.00306 | > 1 | > 1 | – | 0.252 | > 1 | 0.271 | – | – |
| COc1cccc2c1C(=O)c1c(O)c3c(c(O)c1C2=O)C[C@@](O)(C(=O)CO)C[C@@H]3O[C@H]1C[C@H](N)[C@H](O)[C@H](C)O1 [DOXORUBICIN] | – | 0.0146 (≈ 0.0269 µM) | 0.725 (≈ 1.33 µM) | 0.369 (≈ 0.679 µM) | – | 0.00393 (≈ 0.00723 µM) | 0.00142 (≈ 0.00261 µM) | 0.113 (≈ 0.208 µM) | – | – |
| CCCCCCCCCCCC[C@@H](O)[C@H]1CC[C@H]([C@H](O)CC[C@H](O)[C@@H]2CC[C@@H](CCCCC[C@@H](O)CC3=C[C@H](C)OC3=O)O2)O1 [GIGANTECIN] | – | – | 0.268 (≈ 0.419 µM) | 0.411 (≈ 0.643 µM) | – | – | – | – | 222 (≈ 347 µM) | 2.19 |
| C=C(C)[C@H]1Cc2c(ccc3c2O[C@@H]2COc4cc(OC)c(OC)cc4[C@@H]2C3=O)O1 [ROTENONE] | 0.75 (≈ 1.9 µM) | – | – | – | – | – | – | – | – | – |
